Laboratory results taken from patent publication US8455194B2, “Diagnostic methods” (Isis Innovation Limited, priority 2008, dated 2013).
Like-named read-outs stand apart in the source and are kept apart here.

Assays:
[1] = cited from earlier work
SLCO1B1 rs4149056 SNP = settings: summary estimate with interval in brackets; cited from earlier work
[2] = for Cumulative percentage with myopathy / Estimated cumulative myopathy risk: 80 mg simvastatin daily; for Estimated cumulative myopathy risk: life-table analysis
Source text: After randomisation, follow-up of participants was scheduled to occur at 2, 4, 8 and 12 months, and then at 6-monthly intervals. Information was sought about any possible myocardial infarction, hospitalisation for angina, stroke, vascular procedure, pulmonary embolus, cancer or other serious adverse experience. In addition, any new unexplained muscle pain or weakness was explicitly sought and recorded. A blood sample was taken at each follow-up visit for central laboratory assay of CK and ALT.
Standard 1d.f. (trend) and 2 d.f. […] Haploview v4.0 release candidate 2^25 was used to estimate linkage disequilibrium and plot association results for genotyped SNPs. Haplotype frequencies and associated risks were estimated using tools in the haplo.stats (v1.3.1) package^26 in R (v2.6.1)^27. Physical positions refer to NCBI build-36 of the human genome, and alleles are expressed in the forward strand of the reference human genome (NCBI build-36). Ensembl version 46 and NCBI dbSNP build 127 and published reports^11,28,29 were used to classify SNPs as synonymous or non-synonymous and to identify their location within introns or exons.

[3] = Heart Protection Study (HPS): myopathy in participants allocated 40 mg simvastatin daily; format: in vivo, human
Description: (§1) Using DNA extracted from 19,856 (97%) participants, the rs4149056 and rs2306283 SNPs in SLCO1B1 were successfully genotyped in 16,664 participants classified as Caucasian. Effects of these genotypes on myopathy risk and on LDL-cholesterol reduction were then assessed.

LDL-cholesterol = experiment: Heart Protection Study (HPS): LDL-cholesterol reduction on 40 mg simvastatin daily; format: in vivo, human; settings: 4-6 weeks of 40 mg simvastatin daily
Description: as §1
Among 16,664 genotyped participants in HPS,^22 the rs4149056 and rs2306283 variants were not associated with significant differences in pre-treatment LDL-cholesterol levels. […] These 17,000 genotyped participants without myopathy also provide an alternative control population for the SEARCH cases, yielding an odds ratio of 4.7 (3.5-6.4) per rs4149056 C allele and a stronger p-value of 3×10^−28.

[4] = Asian subjects compared with a White (Caucasian) control group; cited from earlier work
[5] = among 6031 participants allocated 80 mg simvastatin daily, average follow-up about 6 years
[6] = among 6033 participants allocated 20 mg simvastatin daily
[7] = among 10,269 participants allocated 40 mg simvastatin daily, 5 years average follow-up

Cc1ccc(C)c(OCCCC(C)(C)C(=O)O)c1 [gemfibrozil]
Increase in area under the statin elimination curve (AUC) ([1]; gemfibrozil given concomitantly with several statins): 2-4 fold

CCC(C)(C)C(=O)O[C@H]1C[C@@H](C)C=C2C=C[C@H](C)[C@H](CC[C@@H](O)C[C@@H](O)CC(=O)O)[C@H]21 [Simvastatin acid]
% higher AUC per C allele among studies of this statin (SLCO1B1 rs4149056 SNP): 61 (30, 100) %

CC(C)n1c(/C=C/C(O)CC(O)CC(=O)O)c(-c2ccc(F)cc2)c2ccccc21 (stereo not drawn) [Fluvastatin (acid), Fluvastatin]
% higher AUC per C allele among studies of this statin (SLCO1B1 rs4149056 SNP): 10 (−9, 34) %

O=C(O)C[C@H](O)C[C@H](O)/C=C/c1c(C2CC2)nc2ccccc2c1-c1ccc(F)cc1 [Pitavastatin (acid), Pitavastatin]
% higher AUC per C allele among studies of this statin (SLCO1B1 rs4149056 SNP): 37 (10, 71) %

CCC(C)(C)C(=O)O[C@H]1C[C@@H](C)C=C2C=C[C@H](C)[C@H](CC[C@@H]3C[C@@H](O)CC(=O)O3)[C@H]21 [simvastatin]
Cumulative percentage with myopathy ([2]; all genotypes, Year 1): 0.91% | Cumulative percentage with myopathy ([2]; all genotypes, Year 5): 1.56% | Estimated cumulative myopathy risk ([2]; rs4149056 CC homozygotes): 18% | Estimated cumulative myopathy risk ([2]; rs4149056 CT genotype): about 3% | Estimated cumulative myopathy risk ([2]; rs4149056 TT homozygotes): 0.6% | Cumulative percentage with myopathy ([2]; rs4149056 genotype CC, Year 1): 15.25% | Cumulative percentage with myopathy ([2]; rs4149056 genotype CC, Year 5): 18.55% | Cumulative percentage with myopathy ([2]; rs4149056 genotype CT, Year 1): 1.38% | Cumulative percentage with myopathy ([2]; rs4149056 genotype CT, Year 5): 2.83% | Cumulative percentage with myopathy ([2]; rs4149056 genotype TT, Year 1): 0.34% | Cumulative percentage with myopathy ([2]; rs4149056 genotype TT, Year 5): 0.63% | Number of definite myopathy cases [2, 5]: 49 | Number of incipient myopathy cases [2, 5]: 49 | Number of definite myopathy cases [2, 6]: 2 | Number of incipient myopathy cases [2, 6]: 6 | Number of definite myopathy cases [3, 7]: 10 | Number of incipient myopathy cases [3, 7]: 14 | Number of myopathy cases (definite plus incipient) [3, 7]: 24 | Number of definite or incipient myopathy cases while taking statin ([3]; participants taking their allocated 40 mg simvastatin daily): 23 | Average reduction in LDL-cholesterol (LDL-cholesterol; 16,664 genotyped participants, SE 0.12): 40.57% | Larger LDL-cholesterol reduction per rs2306283 G allele (LDL-cholesterol; both variants considered together, SE 0.18): 0.62% | Smaller LDL-cholesterol reduction per rs4149056 C allele (LDL-cholesterol; both variants considered together, SE 0.25): 1.28%

CC[C@H](C)C(=O)O[C@H]1C[C@H](O)C=C2C=C[C@H](C)[C@H](CC[C@@H](O)C[C@@H](O)CC(=O)O)[C@H]21 [Pravastatin (acid), Pravastatin]
% higher AUC per C allele among studies of this statin (SLCO1B1 rs4149056 SNP): 35 (17, 56) %

CC(C)c1nc(N(C)S(C)(=O)=O)nc(-c2ccc(F)cc2)c1/C=C/[C@@H](O)C[C@@H](O)CC(=O)O [Rosuvastatin (acid), Rosuvastatin]
% higher AUC per C allele among studies of this statin (SLCO1B1 rs4149056 SNP): 31 (15, 42) % | Elevation in median exposure of rosuvastatin [4]: ~2 fold | Increase in AUC of rosuvastatin ([1]; rosuvastatin combined with cyclosporine): 7-11 times
